Results: patent publication US9128097B2, “Method and kit for assessing viable cells” (ChemoMetec A/S, priority 2008, dated 2015)

Columns and labels:
Type in all cases: cell-based
[1] = tested on: Jurkat (A3) cells; assay: DACM staining of exponentially growing versus starved Jurkat cells; details: viable cells (PI positive gated out); 2 days versus 10 days incubation
Procedure: Materials and Methods. Jurkat (A3) cells were grown in T flasks at 37° C. in a humidified air atmosphere with 5% CO2 in RPMI (Invitrogen, #61870) supplemented with 10% heat-inactivated fetal bovine serum (Invitrogen, #10108-165). To investigate the effect of cell starvation on DACM staining, exponentially proliferating cells from a newly split culture (2 days incubation) were investigated along with cells from a stationary culture (10 days incubation). 1.8 mL proliferating newly split Jurkat cells (cell density 3×10^5, 98% viable) were spun down and resuspended in 95 μL RPMI media and added 5 μL of a mixture of DACM (N-(7-dimethylamino-4-methyl-3-coumarinyl)-maleimide, WAKO Pure Chemical Industries, CAS no. 55145-14-7, 400 μg DACM pr. mL), acridine orange (1.2 μg/mL) and propidium iodide (500 μg/mL) and mixed by pipetting. Immediately after staining cells were loaded into a chamber slide. Images were captured using an in-house developed fluorescence microscope system with a Lumenera CCD camera (2× magnification) and were analysed using in-house developed software.

[2] = tested on: Jurkat (A3) cells; assay: DACM / annexin V AF594 / SYTOX green staining of nocodazole treated Jurkat cells
Procedure: Materials and Methods. Jurkat (A3) cells were grown in T flasks at 37° C. in a humidified air atmosphere with 5% CO2 in RPMI (Invitrogen, #61870) supplemented with 10% heat-inactivated fetal bovine serum (Invitrogen, #10108-165). In order of investigating the effect of an apoptosis-inducing drug on DACM staining, Jurkat cells were treated with nocodazole (0.5 μM) for 16 hours. Nocodazole treated and untreated control cells were harvested washed and stained with annexin V Alexa Fluor 594 (Invitrogen, #A13203) according to manufacturer's instructions. Then cells were stained with DACM (20 μg/mL) (N-(7-dimethylamino-4-methyl-3-coumarinyl)-maleimide, WAKO Pure Chemical Industries, CAS no. 55145-14-7) and the nonviable stain SYTOX green (0.3 μM) (Invitrogen, #S7020). Immediately after staining with DACM cells were loaded into a chamber slide. The cells were investigated using an Olympus IX50 fluorescence microscope, and images (40× magnification) of the Annexin V Alexa Fluor 594, DACM and SYTOX green stained cells were captured using a Lumenera CCD camera combined with the following filter cubes (Olympus); U-MWG2 (green long pass: 510-550 nm), U-MNUA2 (UV band pass, 330-385 nm) and U-MNIB3 (blue band pass: 470-495 nm). Cells were also investigated using an in-house developed fluorescence microscope system with 2× magnification.

[3] = tested on: S. pombe; assay: DACM/PI staining of yeast, fluorescence microscopy; details: 8 μg/ml DACM, no incubation
Procedure: (§1) Materials and Methods. S. pombe strain Eg328, h^90 smt-0 ura4-D18, (ATCC 90720; Styrkarsdottir U et al. Curr. Genet. 23: 184-186, 1993) was grown in a rotary shaker at 29° C. to a density of 1×10^7 cells/ml in EMM minimal medium (Moreno et al., Methods Enzym. 194: 795-823, 1991) supplemented with 10 mM of L-uridine (Sigma, U3750). S. cerevisiae wild strain was cultivated in YPD medium (Qbiogene, #4001-032) at 29° C. to a density of 5×10^7 cells/ml. S. pombe and S. cerevisiae cells were directly stained with 8 μg/ml DACM (N-(7-dimethylamino-4-methyl-3-coumarinyl)-maleimide, WAKO Pure Chemical Industries, CAS no. 55145-14-7 dissolved in DMSO) and 10 μg/ml propidium iodide (Applichem, #A2261.9010) prior to mounting on a microscope slide. Note: after addition of DACM and PI the cells were immediately analysed for fluorescence (no incubation). Olympus IX50 and NucleoCounter® NC3000™ was used for microscopy, and images were captured using a Lumenera CCD camera and in-house developed software. Propidium iodide and DCAM fluorescence were detected using the U-MWG2 and U-MNUA2 filter cubes of the Olympus microscope and filterset 5 and 1 of the NucleoCounter® NC-3000™.

[4] = tested on: S. cerevisiae; assay: DACM/PI staining of yeast, fluorescence microscopy; details: 8 μg/ml DACM, no incubation
Procedure: as §1

[5] = tested on: Jurkat (JM) cells; assay: Staining of proliferating Jurkat cells with labelling agent and propidium iodide, fluorescence microscopy; details: 10 μL agent (100 μg pr. mL DMSO) added to 90 μL cells, only exception PI positive cells
Procedure: (§2) Materials and Methods. Jurkat (JM) cells were grown at 37° C. in a humidified air atmosphere with 5% CO2 in RPMI (Invitrogen, #61870) supplemented with 10% heat-inactivated fetal bovine serum (Invitrogen, #10108-165). 90 μL proliferating Jurkat cells (cell density 1.2×10^6, 99% viable determined using the NC-100 NucleoCounter system following the manufacturer's (ChemoMetec A/S) protocol) were added 10 μL NAM (N-(9-acridinyl)maleimide, Sigma, #01665, CAS no. 49759-20-8) dissolved in DMSO (100 μg NAM pr. mL DMSO) and mixed by pipetting. Cells were loaded into a NucleoCassette, containing the DNA stain propidium iodide (PI). The cells were investigated using an Olympus IX50 fluorescence microscope, and images were captured using a Lumenera CCD camera and in-house developed software. PI and NAM fluorescence were detected using, respectively, U-MWG2 (green long pass: 510-550 nm) and U-MNUA2 (UV band pass, 330-385 nm) filter cubes (Olympus).
as §2, with “1.0×10^6,” for “1.2×10^6,”, “(ChemoMetec)” for “(ChemoMetec A/S)”, “CPM (7-diethylamino-3-[4′-maleimidylphenyl]-4-methylcoumarin, Chemodex Ltd.,” for “NAM (N-(9-acridinyl)maleimide, Sigma, #01665,”, “76877-33-3)” for “49759-20-8)”, “CPM” for “NAM”
as §2, with “1.1×10^6, 98%” for “1.2×10^6, 99%”, “(ChemoMetec)” for “(ChemoMetec A/S)”, “PM (N-(1-Pyrenyl)maleimide, Sigma P7908” for “NAM (N-(9-acridinyl)maleimide, Sigma, #01665,”, “42189-56-0)” for “49759-20-8)”, “PM” for “NAM”, “Cells were loaded into a NucleoCassette, containing the DNA stain propidium iodide (PI).” left out
Materials and Methods. […] 90 μL proliferating Jurkat cells (cell density 1.1×10^6, 98% viable determined using the NC-100 NucleoCounter system following the manufacturer's (ChemoMetec) protocol) were added 10 μL CPI (7-diethylamino-3-((4′-(iodoacetyl)amino)phenyl)-4-methylcoumarin, Sigma 78264 CAS no. 76877-34-4) dissolved in DMSO (100 μg CPI pr. mL DMSO) and mixed by pipetting. […] The cells were investigated using an Olympus IX50 fluorescence microscope, and images were captured using a Lumenera CCD camera and in-house developed software. PI and CPI fluorescence were detected using, respectively, U-MWG2 (green long pass: 510-550 nm) and U-MNUA2 (UV band pass, 330-385 nm) filter cubes (Olympus). […]

[6] = tested on: Jurkat cells; assay: JC-1 mitochondrial potential detection apoptosis assay; details: nocodazole treated Jurkat cells
Text: FIG. 22 The effect of the apoptotic drug nocodazole on the fluorescence intensity of stained Jurkat cells. 22A+22B) Fluorescence intensity of DACM stained untreated (22A) or nocodazole treated (22B) Jurkat cells. […] 22C+22D) Red vs. green fluorescence of JC-1 stained untreated (22C) and nocodazole treated (22D) Jurkat cells. The JC-1 stain is used for detecting apoptosis. JC-1 form red fluorescing aggregates in the mitochondria of healthy, non-apoptotic cells. In apoptotic cells JC-1 appears in its green monomeric, reduced form. […] This is in accordance with the results obtained using DACM to measure the thiol level; treatment with nocodazole causes a decrease in the fluorescence intensity of a subpopulation of cells.

Row | SMILES | DACM fluorescence intensity, healthy versus starved cells [1] | DACM fluorescence intensity of viable, non-apoptotic cells ([2]; DACM 20 μg/mL) | DACM fluorescence intensity of nonviable cells ([2]; SYTOX green positive cells, DACM 20 μg/mL) | DACM fluorescence intensity of apoptotic cells ([2]; annexin V positive cells, DACM 20 μg/mL) | staining of non-viable PI positive cells [3] | staining of viable PI negative cells [3] | staining of non-viable PI positive cells [4] | staining of viable PI negative cells [4] | staining of cells (UV filter) versus PI positive cells [5] | overall DACM fluorescence intensity (thiol level) of treated cells versus untreated ([2]; nocodazole 0.5 μM for 16 hours) | induction of apoptosis (mitochondrial depolarisation, JC-1 red/green fluorescence) [6]
1 | Cc1c(N2C(=O)C=CC2=O)c(=O)oc2cc(N(C)C)ccc12 [DACM, N-(7-dimethylamino-4-methyl-3-coumarinyl)-maleimide] | higher for healthy (exponential growing) Jurkat cells than the starved Jurkat cells | highest fluorescence intensity | low fluorescence intensity | low fluorescence intensity | stain very weakly with DACM | stain brightly with DACM | stain very weakly with DACM | stain brightly with DACM | nearly all cells were stained by DACM |  | 
2 | COC(=O)Nc1nc2ccc(C(=O)c3cccs3)cc2[nH]1 [nocodazole] |  |  |  |  |  |  |  |  |  | lower than the overall fluorescence intensity of untreated Jurkat cells | induces apoptosis (measured as depolarisation) in a cell subpopulation
